Measured values as given in article PMC10175918 (Communications Biology, 2023).
Where two headings read alike, the source gives them in different places.

How the values were obtained:
Experiment in all cases: TGFα-shedding assay-based GPCR screening with chimeric Gα subunit proteins
Type in all cases: cell-based
[1] = target: T1, 348 GPCRs (Homo sapiens, UniProt Q9H3N8); conditions: 10µM, Favipiravir 100μM
T1 construct: expressed in transfected cells; host or cells: HEK293A

[2] = target: T2, 348 GPCRs (Homo sapiens, UniProt Q9Y5Y4); conditions: 10µM, Favipiravir 100μM
T2 construct: expressed in transfected cells; host or cells: HEK293A
T2 sequence (Q9Y5Y4 1-395): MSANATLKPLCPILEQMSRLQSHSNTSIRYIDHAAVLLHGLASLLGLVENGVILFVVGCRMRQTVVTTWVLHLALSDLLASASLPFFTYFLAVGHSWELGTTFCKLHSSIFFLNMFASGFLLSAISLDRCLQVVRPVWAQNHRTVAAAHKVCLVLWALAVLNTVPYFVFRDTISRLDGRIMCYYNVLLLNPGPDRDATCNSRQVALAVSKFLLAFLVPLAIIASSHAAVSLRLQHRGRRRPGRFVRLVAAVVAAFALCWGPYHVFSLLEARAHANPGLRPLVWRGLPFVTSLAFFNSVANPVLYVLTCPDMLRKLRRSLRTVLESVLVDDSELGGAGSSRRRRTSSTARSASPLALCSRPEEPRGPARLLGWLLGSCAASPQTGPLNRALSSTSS

[3] = target: T3, 348 GPCRs (Homo sapiens, UniProt Q969F8); conditions: 10µM, Favipiravir 100μM
T3 construct: expressed in transfected cells; host or cells: HEK293A

[4] = target: T4, 348 GPCRs (Homo sapiens, UniProt Q8IZF2)
T4 construct: expressed in transfected cells; host or cells: HEK293A
T4 sequence (Q8IZF2 22-1346): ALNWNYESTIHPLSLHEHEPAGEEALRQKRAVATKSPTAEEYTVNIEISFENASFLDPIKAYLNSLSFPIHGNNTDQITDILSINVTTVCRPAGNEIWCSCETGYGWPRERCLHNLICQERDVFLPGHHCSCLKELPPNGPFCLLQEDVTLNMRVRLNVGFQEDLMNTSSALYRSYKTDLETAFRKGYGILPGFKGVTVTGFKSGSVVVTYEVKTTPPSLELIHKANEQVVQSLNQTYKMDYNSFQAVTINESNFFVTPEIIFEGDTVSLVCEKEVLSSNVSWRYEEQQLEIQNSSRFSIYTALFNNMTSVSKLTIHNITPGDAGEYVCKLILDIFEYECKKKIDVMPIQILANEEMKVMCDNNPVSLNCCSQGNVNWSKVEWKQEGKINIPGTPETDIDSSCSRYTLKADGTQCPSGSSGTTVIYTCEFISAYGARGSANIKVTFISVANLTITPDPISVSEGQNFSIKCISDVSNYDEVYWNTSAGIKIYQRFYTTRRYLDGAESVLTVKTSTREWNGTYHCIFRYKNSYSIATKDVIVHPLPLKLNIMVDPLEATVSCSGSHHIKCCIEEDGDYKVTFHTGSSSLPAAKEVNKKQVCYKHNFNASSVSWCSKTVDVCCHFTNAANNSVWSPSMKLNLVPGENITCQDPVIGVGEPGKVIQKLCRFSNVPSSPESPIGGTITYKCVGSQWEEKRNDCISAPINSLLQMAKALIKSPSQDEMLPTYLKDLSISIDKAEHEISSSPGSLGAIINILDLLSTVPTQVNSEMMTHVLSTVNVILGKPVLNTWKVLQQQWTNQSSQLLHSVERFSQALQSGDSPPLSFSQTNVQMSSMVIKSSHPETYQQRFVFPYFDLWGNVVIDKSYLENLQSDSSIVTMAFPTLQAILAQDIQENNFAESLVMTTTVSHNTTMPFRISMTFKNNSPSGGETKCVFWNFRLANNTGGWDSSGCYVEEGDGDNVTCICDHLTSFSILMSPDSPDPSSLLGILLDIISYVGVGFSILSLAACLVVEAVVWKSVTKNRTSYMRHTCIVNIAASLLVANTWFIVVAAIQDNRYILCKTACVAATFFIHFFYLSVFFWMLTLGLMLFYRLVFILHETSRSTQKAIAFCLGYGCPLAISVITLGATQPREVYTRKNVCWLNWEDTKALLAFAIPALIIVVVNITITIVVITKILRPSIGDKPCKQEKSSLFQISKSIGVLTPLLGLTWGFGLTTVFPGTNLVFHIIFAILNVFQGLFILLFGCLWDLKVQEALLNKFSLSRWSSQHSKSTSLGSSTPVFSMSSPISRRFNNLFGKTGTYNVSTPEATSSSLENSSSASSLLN

[5] = target: 348 GPCRs (Homo sapiens, UniProt P21554); conditions: read-out: % GPCR activation compared to TPA, CB1 (cannabinoid receptor 1); 10µM, Favipiravir 100μM
[6] = target: T5, 348 GPCRs (Homo sapiens, UniProt P08908); conditions: 10µM, Favipiravir 100μM
T5 construct: expressed in transfected cells; host or cells: HEK293A
T5 sequence (P08908 1-422): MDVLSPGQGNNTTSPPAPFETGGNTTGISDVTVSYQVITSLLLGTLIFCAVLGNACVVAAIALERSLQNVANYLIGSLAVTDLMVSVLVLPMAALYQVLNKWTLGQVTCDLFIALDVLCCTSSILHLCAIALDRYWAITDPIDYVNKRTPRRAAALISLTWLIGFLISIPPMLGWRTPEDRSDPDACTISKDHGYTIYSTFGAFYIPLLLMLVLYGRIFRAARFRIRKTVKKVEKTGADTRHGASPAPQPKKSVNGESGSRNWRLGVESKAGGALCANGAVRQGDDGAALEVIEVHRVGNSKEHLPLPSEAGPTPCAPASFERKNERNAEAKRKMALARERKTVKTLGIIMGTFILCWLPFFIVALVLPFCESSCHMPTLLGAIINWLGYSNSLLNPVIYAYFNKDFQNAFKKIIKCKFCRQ

[7] = H4 (histamine receptor H4), read-out: % GPCR activation compared to TPA
[8] = DP2 (prostaglandin D2 receptor 2), read-out: % GPCR activation compared to TPA
[9] = KISSPEPTIN-R (KISS1 Receptor), read-out: % GPCR activation compared to TPA
[10] = GPCR GPR116 (G-protein-coupled receptor 116 (ADGRF5)), read-out: % GPCR activation compared to TPA
[11] = 5-HT1A (5-hydroxytryptamine receptor 1A), read-out: % GPCR activation compared to TPA
[12] = read-out: % GPCR activation compared to TPA, H4 (histamine receptor H4)
[13] = read-out: % GPCR activation compared to TPA, DP2 (prostaglandin D2 receptor 2)
[14] = read-out: % GPCR activation compared to TPA, KISSPEPTIN-R (KISS1 Receptor)
[15] = read-out: % GPCR activation compared to TPA, GPCR GPR116 (G-protein-coupled receptor 116 (ADGRF5))
[16] = read-out: % GPCR activation compared to TPA, 5-HT1A (5-hydroxytryptamine receptor 1A)

T3 sequence (Q969F8 whole entry): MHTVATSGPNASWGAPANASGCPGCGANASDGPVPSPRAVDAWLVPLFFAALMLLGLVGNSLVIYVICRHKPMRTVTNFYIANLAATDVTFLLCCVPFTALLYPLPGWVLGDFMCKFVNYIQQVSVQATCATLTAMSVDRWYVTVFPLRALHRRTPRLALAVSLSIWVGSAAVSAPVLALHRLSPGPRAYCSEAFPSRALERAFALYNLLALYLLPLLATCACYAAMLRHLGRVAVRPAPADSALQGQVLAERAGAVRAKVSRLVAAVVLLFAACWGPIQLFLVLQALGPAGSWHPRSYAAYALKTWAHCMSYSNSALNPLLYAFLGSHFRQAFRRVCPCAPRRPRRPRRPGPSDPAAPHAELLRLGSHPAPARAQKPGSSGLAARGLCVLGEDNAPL
Sequence of 348 GPCRs (Homo sapiens, UniProt P21554) (P21554 whole entry): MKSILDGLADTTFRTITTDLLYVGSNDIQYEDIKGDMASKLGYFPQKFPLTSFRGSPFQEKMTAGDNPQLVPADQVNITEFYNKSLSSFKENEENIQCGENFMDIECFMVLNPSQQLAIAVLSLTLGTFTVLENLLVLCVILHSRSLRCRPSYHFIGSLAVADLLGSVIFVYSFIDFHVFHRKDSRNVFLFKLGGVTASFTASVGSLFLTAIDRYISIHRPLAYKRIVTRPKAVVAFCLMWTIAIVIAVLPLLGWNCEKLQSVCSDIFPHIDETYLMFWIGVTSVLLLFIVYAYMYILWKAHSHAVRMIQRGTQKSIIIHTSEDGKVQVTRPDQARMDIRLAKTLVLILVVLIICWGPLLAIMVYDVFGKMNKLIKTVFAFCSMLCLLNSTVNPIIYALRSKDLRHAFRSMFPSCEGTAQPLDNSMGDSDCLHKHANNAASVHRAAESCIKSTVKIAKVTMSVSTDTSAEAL

SMILES	activation at 100 µM [1, 7]	activation at 100 µM [2, 8]	activation at 100 µM [3, 9]	activation at 10 µM [4, 10]	activation at 100 µM [5]	activation at 10 µM [6, 11]	activation at 100 µM ([4]; GPCR GPR116 (G-protein-coupled receptor 116 (ADGRF5)), 100μM, read-out: % GPCR activation compared to TPA)	activation at 100 µM [1, 12]	activation at 100 µM [2, 13]	activation at 100 µM [3, 14]	activation at 10 µM [4, 15]	activation at 10 µM [6, 16]
CCC(CC)COC(=O)[C@H](C)N[P@](=O)(OC[C@H]1O[C@@](C#N)(c2ccc3c(N)ncnn23)[C@H](O)[C@@H]1O)Oc1ccccc1 [remdesivir]					-4.06%			7.16%	1.87%	-1.75%	-2.59%	1.91%
CC(C)OC(=O)[C@H](C)N[P@](=O)(OC[C@H]1O[C@@H](n2ccc(=O)[nH]c2=O)[C@](C)(F)[C@@H]1O)Oc1ccccc1 [sofosbuvir]					-1.13%			-3.28%	0.675%	-1.38%	-0.621%	-0.274%

Now from value to compound, other results behind:

activation at 100 µM [1, 7]	activation at 100 µM [2, 8]	activation at 100 µM [3, 9]	activation at 10 µM [4, 10]	activation at 100 µM [5]	activation at 10 µM [6, 11]	activation at 100 µM ([4]; GPCR GPR116 (G-protein-coupled receptor 116 (ADGRF5)), 100μM, read-out: % GPCR activation compared to TPA)	SMILES	activation at 100 µM [1, 12]	activation at 100 µM [2, 13]	activation at 100 µM [3, 14]	activation at 10 µM [4, 15]	activation at 10 µM [6, 16]
5.54%	-0.745%	-2.31%	-2.91%	0.0409%	-0.48%		N#C[C@@]1(c2ccc3c(N)ncnn23)O[C@H](CO)[C@@H](O)[C@H]1O [GS441524]					
1.77%	0.119%	-3.52%		1.89%	-0.504%	-1.79%	NC(=O)c1nc(F)cnc1O [favipiravir, 6-fluoro-3-hydroxy-2-pyrazinecarboxamide]					
-3.71%	0.374%	-4.04%	-2.23%	-1.3%	-1.27%		CC(C)C(=O)OC[C@H]1O[C@@H](n2ccc(NO)nc2=O)[C@H](O)[C@@H]1O [molnupiravir]					
